The conditions of assay [1]: in vivo; cited from earlier work.
The target of assay [2] is human PrCP (Homo sapiens (Human), UniProt P42785). Kind of assay: biochemical.
Experimental: The assay was performed using a Hamilton Star liquid handling workstation. The assay employed the internally quenched fluorescent substrate (1S)-1-carboxy-5-[(2,4-dinitrophenyl)amino]pentyl N-[(7-methoxy-2-oxo-2H-chromen-4-yl)acetyl]-L-alanyl-L-prolinate prepared in house.
The assay also contained 2% DMSO used to solubilize the substrate and inhibitor. Inhibitors were prepared in 100% DMSO and serial diluted (in 100% DMSO) to generate 11 point titration curves. Either 39 uL of human or mouse PrCP enzyme was added to the wells of the assay plate, followed by a 1 uL addition of the serially diluted inhibitor and mixed three times using a 30 uL mix volume. The reaction was initiated by the addition of 10 uL substrate and mixed three times using a 30 uL mix volume. […] IC50 values were calculated by comparing the resulting rates of reaction of the inhibited and control initial velocities.
The enzymes were diluted in a mixture of 10 mM NaOAc (pH 5.5)/100 mM NaCl buffer containing 25 ug/mL bovine serum albumin that had been warmed to 37° C. in a water bath. The PrCP inhibitor test compounds were plated in 100% DMSO with a highest concentration of 500 uM. There were 12 dilution points for each compound tested including a blank with DMSO only. […]
Assay [3] concerns rats. The conditions noted are these: intracerebroventricular administration to rats; cited from earlier work.
Assay [4] has as its system obese, leptin deficient mice. The conditions noted are these: systemic administration to obese; cited from earlier work.

Chain of human PrCP (P42785 46-496): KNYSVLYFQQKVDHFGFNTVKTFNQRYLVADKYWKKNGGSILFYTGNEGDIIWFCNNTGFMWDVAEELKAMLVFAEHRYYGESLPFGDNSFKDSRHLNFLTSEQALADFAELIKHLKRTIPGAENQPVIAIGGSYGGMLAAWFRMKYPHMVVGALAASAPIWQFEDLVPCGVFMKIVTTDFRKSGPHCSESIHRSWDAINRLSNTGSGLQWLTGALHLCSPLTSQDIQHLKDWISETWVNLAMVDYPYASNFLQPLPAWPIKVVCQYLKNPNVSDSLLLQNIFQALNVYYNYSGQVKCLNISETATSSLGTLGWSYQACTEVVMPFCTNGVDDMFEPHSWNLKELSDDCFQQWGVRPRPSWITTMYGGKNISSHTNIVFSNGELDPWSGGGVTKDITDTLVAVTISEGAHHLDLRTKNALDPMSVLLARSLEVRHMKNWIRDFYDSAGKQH

For the molecule `CC(C)(N)Cc1ccccc1` [phentermine], the “weight loss, of body weight for drug compared to placebo” value (shortened to “weight loss … compared to placebo”) in assay [1] was 5%-10%.

By IC50 is commonly meant the concentration that inhibits the measured activity by half. In assay [2], `O=C(NC(c1ccc(F)cc1)c1ccc(F)cc1)C1CCC(N2CCOCC2)CC1c1ccc(F)cc1` (single isomer, unassigned) [Example 4, N-[bis(4-fluorophenyl)methyl]-2-(4-fluorophenyl)-4-(morpholin-4-yl)cyclohexanecarboxamide] yielded a half-maximal inhibitory concentration (IC50) of 2.1 nM.

Regarding `CC(C)CC(N(C)C)C1(c2ccc(Cl)cc2)CCC1` (stereo not shown) [sibutramine], the “weight loss … compared to placebo” value in assay [1] is reported as 5%-10%.

In the case of `CCCCCCCCCCC[C@@H](C[C@@H]1OC(=O)[C@H]1CCCCCC)OC(=O)[C@H](CC(C)C)NC=O` [orlistat], the “weight loss … compared to placebo” value in assay [1] was 5%-10%.

`CCN[C@@H](C)Cc1cccc(C(F)(F)F)c1` [dexfenfluramine]: the “weight loss … compared to placebo” value in assay [1] is 5%-10%.

t-butyl carbamate-prolyl prolinal [BPP]: the overnight food intake entry in assay [3] and in assay [4] was “suppression of overnight food intake” throughout.
